Laboratory results taken from publication PMC13544220, “Glycemic and bodyweight effects of GIPR coding variation reflect differences in surface expression and intrinsic functional impairment” (Science Advances, 2026).

Experiments:
[1] = test system: wild-type and variant SNAP-GIPR; assay: Single-concentration GIP cAMP response by HTRF in AD293 cells; type: cell-based, human; conditions: for HTRF cAMP: 100 nM GIP, AD293, 30 min, mean, n=8
Procedure: All variants were tested in parallel on each occasion to control for transfection efficiency differences between experiments.

[2] = test system: wild-type and variant SNAP-GIPR; assay: cADDis cAMP imaging in AD293 cells, ensemble, expression-matched and per decile; type: cell-based, human
Procedure, shortened: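 Variants and wild type ran in parallel in transfected AD293 cells carrying cADDis. Single-cell sensor intensity, with nonresponders to IBMX/FSK removed, was paired with SNAP-Surface 647 labeling to allow expression-matched analysis.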

[3] = test system: wild-type and variant SNAP-GIPR; assay: Constitutive and agonist-mediated internalization, reversible SNAP-tag labelling, AD293 cells; type: cell-based, human; conditions: 100 nM GIP
Procedure, shortened: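 Surface SNAP-GIPR signal removable by Mesna was tracked by imaging before and 10 min after treatment in pH 8.6 TNE buffer. Internalization is the Mesna-resistant share of specific fluorescence.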

[4] = test system: wild-type and variant SNAP-GIPR in Gipr-/- mouse islets; assay: Insulin secretion from Gipr-/- mouse islets transduced with GIPR adenoviruses; type: cell-based; conditions: Gipr-/- islets, 11 mM glucose, 100 nM GIP
Procedure: Isolated islets used for insulin secretion assays were treated in 1.5-ml microcentrifuge tubes. Eight-ten islets were used per well with two-three technical replicates per condition. […] At the end of the treatment, supernatants containing the secreted insulin or glucagon were collected, centrifuged at 1000g for 5 min, and transferred to fresh tubes. […] The lysates were sonicated 3× for 10 s in a water bath and centrifuged at 10,000g for 10 min, and the supernatants were collected. The samples were stored at −20°C until the insulin or glucagon concentrations were determined using an Insulin Ultra-Sensitive HTRF Assay kit (62IN2PEG, Revvity) or an HTRF Glucagon Detection Kit (62CGLPEG, Revvity) respectively, according to the manufacturer’s instructions. GraphPad Prism 9.0 was used for the generation of the standard curve and sample concentration extrapolation. The total insulin or glucagon content was calculated by adding the secreted insulin to the insulin content of the lysates, and secretion was reported as the percentage release of total. The percent secretion of islets treated with agonist was normalized to that of islets treated with vehicle and reported as a fold change.

## CC[C@H](C)[C@H](NC(=O)[C@H](CO)NC(=O)[C@H](Cc1ccc(O)cc1)NC(=O)[C@H](CC(=O)O)NC(=O)[C@H](CO)NC(=O)[C@@H](NC(=O)[C@H](Cc1ccccc1)NC(=O)[C@@H](NC(=O)CNC(=O)[C@H](CCC(=O)O)NC(=O)[C@H](C)NC(=O)[C@@H](N)Cc1ccc(O)cc1)[C@@H](C)O)[C@@H](C)CC)C(=O)N[C@@H](C)C(=O)N[C@@H](CCSC)C(=O)N[C@@H](CC(=O)O)C(=O)N[C@@H](CCCCN)C(=O)N[C@H](C(=O)N[C@@H](Cc1c[nH]cn1)C(=O)N[C@@H](CCC(N)=O)C(=O)N[C@@H](CCC(N)=O)C(=O)N[C@@H](CC(=O)O)C(=O)N[C@@H](Cc1ccccc1)C(=O)N[C@H](C(=O)N[C@@H](CC(N)=O)C(=O)N[C@@H](Cc1c[nH]c2ccccc12)C(=O)N[C@@H](CC(C)C)C(=O)N[C@@H](CC(C)C)C(=O)N[C@@H](C)C(=O)N[C@@H](CCC(N)=O)C(=O)N[C@@H](CCCCN)C(=O)NCC(=O)N[C@@H](CCCCN)C(=O)N[C@@H](CCCCN)C(=O)N[C@@H](CC(N)=O)C(=O)N[C@@H](CC(=O)O)C(=O)N[C@@H](Cc1c[nH]c2ccccc12)C(=O)N[C@@H](CCCCN)C(=O)N[C@@H](Cc1c[nH]cn1)C(=O)N[C@@H](CC(N)=O)C(=O)N[C@H](C(=O)N[C@H](C(=O)N[C@@H](CCC(N)=O)C(=O)O)[C@@H](C)O)[C@@H](C)CC)C(C)C)[C@@H](C)CC [GIP, glucose-dependent insulinotropic polypeptide, reference compound]
[1]; A207V
  HTRF cAMP: 1.3964 vs. experimental average
[1]; A268V
  HTRF cAMP: 1.283 vs. experimental average
[1]; AD293, 100 pM GIP, E252D and A268V
  cAMP response: GoF cAMP responses
[1]; AD293, 100 pM GIP, E354Q
  cAMP response: increased response
[1]; AD293, 100 pM GIP, R136W and R131S
  cAMP response: reduced cAMP response
[1]; AD293, 100 pM and 100 nM GIP, 10 variants with lowest surface expression
  cAMP response: reduced cAMP responses
[1]; AD293, 100 nM GIP, S64A, R217L, L262H
  cAMP response at higher concentration: at least a partially restored response
[1]; D66G
  HTRF cAMP: 0.328 vs. experimental average
[1]; E252D
  HTRF cAMP: 1.787 vs. experimental average
[1]; E288G
  HTRF cAMP: 0.3648 vs. experimental average
[1]; E354Q
  HTRF cAMP: 1.4229 vs. experimental average
[1]; E463Q
  HTRF cAMP: 1.311 vs. experimental average
[1]; G438S
  HTRF cAMP: 1.655 vs. experimental average
[1]; I378M
  HTRF cAMP: 1.479 vs. experimental average
[1]; I403V
  HTRF cAMP: 1.595 vs. experimental average
[1]; L100F
  HTRF cAMP: 1.598 vs. experimental average
[1]; L262H
  HTRF cAMP: 1.14 vs. experimental average
[1]; L262V
  HTRF cAMP: 1.331 vs. experimental average
[1]; L304R
  HTRF cAMP: 0.7364 vs. experimental average
[1]; R101H
  HTRF cAMP: 0.2474 vs. experimental average
[1]; R131S
  HTRF cAMP: 1.306 vs. experimental average
[1]; R136W
  HTRF cAMP: 1.324 vs. experimental average
[1]; R183Q
  HTRF cAMP: 0.2411 vs. experimental average
[1]; R190Q
  HTRF cAMP: 0.2205 vs. experimental average
[1]; R196G
  HTRF cAMP: 1.594 vs. experimental average
[1]; R217L
  HTRF cAMP: 1.142 vs. experimental average
[1]; R300W
  HTRF cAMP: 1.632 vs. experimental average
[1]; R336P
  HTRF cAMP: 1.143 vs. experimental average
[1]; R341P
  HTRF cAMP: 0.1915 vs. experimental average
[1]; R404H
  HTRF cAMP: 1.255 vs. experimental average
[1]; S64A
  HTRF cAMP: 1.061 vs. experimental average
[1]; S415G
  HTRF cAMP: 1.323 vs. experimental average
[1]; S415I
  HTRF cAMP: 1.113 vs. experimental average
[1]; S447T
  HTRF cAMP: 1.418 vs. experimental average
[1]; T116R
  HTRF cAMP: 1.485 vs. experimental average
[1]; WT
  HTRF cAMP: 1.495 vs. experimental average
[2]; AD293, 100 pM GIP, E354Q (lesser extent A207V, E252D, A268V)
  cADDis cAMP response at low own expression: increased responses relative to the wild type
[2]; AD293, 100 pM GIP, R101H, S64A, R217L, L262H, L304R
  cADDis cAMP response, expression-matched: at least partly restored to wild-type levels
[2]; AD293, 100 pM GIP, R136W, R131S, T116R, S64A
  cADDis cAMP response at highest own expression: wild type–like responses
[2]; AD293, 100 pM GIP, all variants with reduced ensemble response
  cADDis cAMP response, expression-matched: still showed LoF
[2]; AD293, 100 pM and 100 nM GIP, R183Q, R190Q, D66G, E288G
  cADDis cAMP response, expression-matched: no rescue of function
[3]; R190Q, R101H, E288G, D66G, R183Q, either/both AD293 and INS-1
  GIP-induced increase in internalization: statistically significant reductions in internalization
[3]; most variants, AD293 and INS-1
  internalization: wild type–like internalization
[4]; 30 min, E354Q vs wild-type
  GIP-induced insulin secretion: blunted insulinotropic response
[4]; R101H and E288G, not significant
  GIP-induced insulin secretion: apparent reduced GIP-induced insulin secretion
[4]; R190Q, statistically significant
  GIP-induced insulin secretion: reduced GIP-induced insulin secretion
